“And” between values parts separate entries of the source, which are not always exact repeats. Equal entries are not always repeated. Toxic doses and inconclusive results are not listed.

This assay has as its system CD2F1 mice, L1210 leukemia ip, survival T/C. Description: NCI In Vivo Anticancer Drug Screen. Data for tumor model L1210 Leukemia (intraperitoneal) in CD2F1 (CDF1) mice. The settings on record: higher = longer survival. In a few lines:
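Mice carrying a transplanted tumor received test compound or vehicle alone. The value is the measurement in the treated group divided by that in the vehicle-treated control group.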

[1] abbreviates: endpoint: mean survival time, dose: 100.0 mg/kg/injection, schedule: Q01DX001 (ip), vehicle: saline with Tween-80.
[2] abbreviates: endpoint: mean survival time, dose: 200.0 mg/kg/injection, schedule: Q01DX001 (ip), vehicle: saline with Tween-80.
[3] abbreviates: endpoint: mean survival time, dose: 400.0 mg/kg/injection, schedule: Q01DX001 (ip), vehicle: saline with Tween-80.
[4] abbreviates: endpoint: mean survival time, dose: 100.0 mg/kg/injection, schedule: Q04DX003 (ip), vehicle: saline.
Where [5] appears, read: endpoint: mean survival time, dose: 200.0 mg/kg/injection, schedule: Q04DX003 (ip), vehicle: saline.
[6] abbreviates: endpoint: mean survival time, dose: 50.0 mg/kg/injection, schedule: Q04DX003 (ip), vehicle: saline.
[7] abbreviates: endpoint: mean survival time, dose: 50.0 mg/kg/injection, schedule: Q01DX009 (ip), vehicle: saline with Tween-80.
The mark [8] stands for this setting: endpoint: mean survival time, dose: 100.0 mg/kg/injection, schedule: Q01DX009 (ip), vehicle: saline with Tween-80.
[9] abbreviates: endpoint: mean survival time, dose: 100.0 mg/kg/injection, schedule: Q04DX003 (ip), vehicle: saline with Tween-80.
Setting [10] is: endpoint: mean survival time, dose: 200.0 mg/kg/injection, schedule: Q04DX003 (ip), vehicle: saline with Tween-80.
[11] abbreviates: endpoint: mean survival time, dose: 0.5 mg/kg/injection, schedule: Q01DX009 (ip), vehicle: water.
The mark [12] stands for this setting: endpoint: mean survival time, dose: 1.0 mg/kg/injection, schedule: Q01DX009 (ip), vehicle: water.
Setting [13] is: endpoint: mean survival time, dose: 2.0 mg/kg/injection, schedule: Q01DX009 (ip), vehicle: water.
[14] abbreviates: endpoint: mean survival time, dose: 4.0 mg/kg/injection, schedule: Q01DX009 (ip), vehicle: water.
Setting [15] is: endpoint: mean survival time, dose: 200.0 mg/kg/injection, schedule: Q01DX009 (ip), vehicle: saline with Tween-80.
[16] abbreviates: endpoint: mean survival time, dose: 400.0 mg/kg/injection, schedule: Q04DX003 (ip), vehicle: saline with Tween-80.
The mark [17] stands for this setting: endpoint: mean survival time, dose: 400.0 mg/kg/injection, schedule: Q01DX009 (ip), vehicle: saline with Tween-80.

For the compound `OCC1OC(n2ncc3c2nnn2ncnc32)C(O)C1O` (stereo unspecified), the T/C runs as follows: (endpoint: mean survival time, dose: 25.0 mg/kg/injection, schedule: Q01DX005 (ip), vehicle: water) 92 % of control; (endpoint: mean survival time, dose: 50.0 mg/kg/injection, schedule: Q01DX005 (ip), vehicle: water) 99 % of control; (endpoint: mean survival time, dose: 100.0 mg/kg/injection, schedule: Q01DX005 (ip), vehicle: water) 94 % of control; (endpoint: mean survival time, dose: 200.0 mg/kg/injection, schedule: Q01DX005 (ip), vehicle: water) 87 % of control; (endpoint: mean survival time, dose: 400.0 mg/kg/injection, schedule: Q01DX005 (ip), vehicle: water) 113 % of control.
For `COCC1OC(OC)C(OC(=O)c2ccccc2)C(OC(=O)c2ccccc2)C1OC` (stereo unspecified), the T/C was 90 % of control under setting [1], 91 % of control under setting [2] and 90 % of control under setting [3].
Take `COCCCNC(=O)CS(=O)(=O)c1ccc(C)cc1`: the T/C under setting [4] is 102 % of control; the T/C under setting [5] was 98 % of control; the T/C (endpoint: mean survival time, dose: 400.0 mg/kg/injection, schedule: Q04DX003 (ip), vehicle: saline) was 102 % of control.
With `Cc1c2ncnc-2ncn1O`, the T/C was 97 % of control (endpoint: mean survival time, dose: 25.0 mg/kg/injection, schedule: Q04DX003 (ip), vehicle: saline); 101 % of control under setting [6]; 104 % of control under setting [4].
Take `CCCCCCCCCCCCNCCC#N`: the T/C is 100 % of control (endpoint: mean survival time, dose: 25.0 mg/kg/injection, schedule: Q01DX009 (ip), vehicle: saline with Tween-80); 101 % of control under setting [7]; 95 % of control under setting [8]; 93 % of control under setting [9]; 87 % of control under setting [10].
For `O=[N+]([O-])c1ccc(/C=C/C2(CCl)OCCO2)cc1`, the T/C is 96 % of control (endpoint: mean survival time, dose: 100.0 mg/kg/injection, schedule: Q01DX001 (ip), vehicle: Klucel (hydroxypropylcellulose) (HPC)); 92 % of control (endpoint: mean survival time, dose: 200.0 mg/kg/injection, schedule: Q01DX001 (ip), vehicle: Klucel (hydroxypropylcellulose) (HPC)); 100 % of control (endpoint: mean survival time, dose: 400.0 mg/kg/injection, schedule: Q01DX001 (ip), vehicle: Klucel (hydroxypropylcellulose) (HPC)).
In the case of `CC#CN(CC)CC`, the T/C reads like this: (endpoint: mean survival time, dose: 75.0 mg/kg/injection, schedule: Q01DX001 (ip), vehicle: saline) 105 % of control; (endpoint: mean survival time, dose: 150.0 mg/kg/injection, schedule: Q01DX001 (ip), vehicle: saline) 106 % of control.
Turning to `COc1ccc(C(C#N)C(CC(=O)c2ccccc2)c2ccccc2)cc1` (stereo unspecified), the T/C by setting is: (endpoint: mean survival time, dose: 100.0 mg/kg/injection, schedule: Q04DX002 (ip), vehicle: saline with Tween-80) 98 % of control; (endpoint: mean survival time, dose: 200.0 mg/kg/injection, schedule: Q04DX002 (ip), vehicle: saline with Tween-80) 91 % of control; (endpoint: mean survival time, dose: 400.0 mg/kg/injection, schedule: Q04DX002 (ip), vehicle: saline with Tween-80) 87 % of control.
Regarding `COc1ccc(C(=O)N/N=C(\C)[C@]2(O)Cc3c(O)c4c(c(O)c3[C@@H](OC3CC(N)C(O)C(C)O3)C2)C(=O)c2c(OC)cccc2C4=O)cc1` (stereo partly specified), the T/C under setting [11] is 103 % of control, the T/C under setting [12] is 112 % of control, the T/C under setting [13] was 118 % of control and the T/C under setting [14] was 121 % of control.
Take `CCC/C=C/C(O)C(C)C(C)C` (stereo unspecified): the T/C is 103 % of control under setting [7], 103 % of control under setting [8] and 98 % of control under setting [15].
As for `CCN(CC)[P+](c1ccccc1O)(N(CC)CC)N(CC)CC`, the T/C is 103 % of control (endpoint: mean survival time, dose: 0.39 mg/kg/injection, schedule: Q01DX009 (ip), vehicle: saline); 104 % of control (endpoint: mean survival time, dose: 0.78 mg/kg/injection, schedule: Q01DX009 (ip), vehicle: saline); 109 % of control (endpoint: mean survival time, dose: 1.56 mg/kg/injection, schedule: Q01DX009 (ip), vehicle: saline); 92 % of control (endpoint: mean survival time, dose: 6.25 mg/kg/injection, schedule: Q01DX009 (ip), vehicle: saline).
In the case of `C/C(=N/O)c1cccc([N+](=O)[O-])c1`, the T/C is 95 % of control under setting [8]; 104 % of control under setting [9]; 98 % of control under setting [15]; 95 % of control under setting [10]; 103 % of control under setting [16].
In the case of `CC(C)CC(NC(=O)C(O)C(N)Cc1ccccc1)C(=O)O` (stereo unspecified), the T/C was 96 % of control (endpoint: mean survival time, dose: 10.0 micrograms/kg/injection, schedule: Q01DX005 (oral), vehicle: saline); 100 % of control (endpoint: mean survival time, dose: 100.0 micrograms/kg/injection, schedule: Q01DX005 (oral), vehicle: saline); 97 % of control (endpoint: median survival time, dose: 10.0 micrograms/mouse/injection, schedule: Q01DX010 (oral), vehicle: saline); 95 % of control (endpoint: median survival time, dose: 100.0 micrograms/mouse/injection, schedule: Q01DX010 (oral), vehicle: saline).
Regarding `CC1CC(C)(C)C(C[NH-])C1[NH-].[Cl][Pt+2][Cl]` (stereo unspecified), the T/C is, setting by setting: (endpoint: mean survival time, dose: 3.12 mg/kg/injection, schedule: Q04DX003 (ip), vehicle: saline) 115 % of control; under setting [6], 261 % of control; under setting [4], 158 % of control and 211 % of control; under setting [5], 94 % of control.
Consider `O=[N+]([O-])/C(=C/C=C/c1ccccc1)c1ccccc1`, for which the T/C under setting [1] is 101 % of control, the T/C under setting [2] was 103 % of control and the T/C under setting [3] is 91 % of control.
On to `O=C(O)C(O)CO.O=C(O)C(O)CO.[NH-]C1CCCCC1[NH-].[Pt+2]` (stereo unspecified), for which the T/C (endpoint: mean survival time, dose: 2.5 mg/kg/injection, schedule: Q04DX003 (ip), vehicle: other) is 124 % of control.
Turning to `CC(C)(C)C1CCC(OC(=O)c2ccccc2C(=O)O)CC1` (stereo unspecified), the T/C by setting is: under setting [8], 100 % of control; under setting [9], 100 % of control; under setting [15], 97 % of control; under setting [10], 98 % of control; under setting [17], 89 % of control; under setting [16], 96 % of control.
Consider `O=C1OC2CCCCC2c2ccccc21` (stereo unspecified), for which the T/C by setting is: under setting [9], 98 % of control; under setting [10], 96 % of control; under setting [16], 98 % of control.
Consider `O=CNCCN(C=O)CCO`, for which the T/C is 97 % of control (endpoint: mean survival time, dose: 100.0 mg/kg/injection, schedule: Q01DX009 (ip), vehicle: saline); 104 % of control (endpoint: mean survival time, dose: 200.0 mg/kg/injection, schedule: Q01DX009 (ip), vehicle: saline); 98 % of control (endpoint: mean survival time, dose: 400.0 mg/kg/injection, schedule: Q01DX009 (ip), vehicle: saline).
With `CC[C@@]1(O)C[C@H](OC2CC(N(C)C)C(OC3CC(O)C(OC4CCC(=O)C(C)O4)C(C)O3)C(C)O2)c2c(cc3c(c2O)C(=O)c2c(O)cccc2C3=O)[C@H]1C(=O)OC` (stereo partly specified), the T/C reads like this: (endpoint: mean survival time, dose: 0.12 mg/kg/injection, schedule: Q01DX009 (ip), vehicle: water) 97 % of control; (endpoint: mean survival time, dose: 0.25 mg/kg/injection, schedule: Q01DX009 (ip), vehicle: water) 92 % of control; under setting [11], 95 % of control; under setting [12], 90 % of control; under setting [13], 106 % of control; under setting [14], 108 % of control. Moreover, the T/C (endpoint: mean survival time, dose: 8.0 mg/kg/injection, schedule: Q01DX009 (ip), vehicle: water) was 86 % of control and the T/C (endpoint: mean survival time, dose: 50.0 mg/kg/injection, schedule: Q04DX002 (ip), vehicle: saline with Tween-80) is 87 % of control.
On to `CN=NNc1ccc(C(=O)NC(C)C)cc1`, for which the T/C (endpoint: mean survival time, dose: 25.0 mg/kg/injection, schedule: Q01DX009 (ip), vehicle: DMSO) is 112 % of control; the T/C (endpoint: mean survival time, dose: 25.0 mg/kg/injection, schedule: Q01DX009 (ip), vehicle: other) is 110 % of control; the T/C (endpoint: mean survival time, dose: 50.0 mg/kg/injection, schedule: Q01DX009 (ip), vehicle: DMSO) was 114 % of control; the T/C (endpoint: mean survival time, dose: 50.0 mg/kg/injection, schedule: Q01DX009 (ip), vehicle: other) is 102 % of control and 109 % of control; the T/C (endpoint: mean survival time, dose: 100.0 mg/kg/injection, schedule: Q01DX009 (ip), vehicle: other) was 107 % of control; the T/C (endpoint: mean survival time, dose: 200.0 mg/kg/injection, schedule: Q01DX009 (ip), vehicle: DMSO) was 86 % of control.
For `Cc1ccc(O)c(N)c1`, the T/C is 93 % of control under setting [9] and 111 % of control under setting [10].
As for `Cc1ccccc1NC(=O)c1ccccc1`, the T/C was 97 % of control under setting [8], 100 % of control under setting [15] and 91 % of control under setting [17].
